Data from publication PMC11633415, “Investigation of the inhibitory properties of azo-dyes on chorismate synthase from Paracoccidioides brasiliensis” (Journal of Enzyme Inhibition and Medicinal Chemistry, 2024).
Read-outs that look alike come from different tables or passages of the source.

Legend:
[1] = target: T1, chorismate synthase (CS) (Aquifex aeolicus, UniProt O66493); test: Spectrophotometric titration, CS from Aquifex aeolicus; assay type: binding
T1 construct: made in house; host or cells: E. coli

[2] = target: chorismate synthase (CS) (Methanothermobacter thermautotrophicus, UniProt O26843); test: Spectrophotometric titration, CS from Methanobacterium thermoautotrophicum; assay type: binding
[3] = target: chorismate synthase from Paracoccidioides brasiliensis (PbCS) (Paracoccidioides brasiliensis, UniProt C1GBW5); test: Spectrophotometric titration / binding assay, PbCS
Procedure: (§1) For the binding studies, PH011669 was dissolved in 50 mM NaH2PO4 and 150 mM NaCl at pH 8, diluted to a final concentration of approximately 10 µM (A580nm ∼0.25; 800 µL), and transferred to a quartz cuvette (with 800 µL of buffer in the reference cuvette). After recording an initial UV-visible absorption spectrum between 300 and 800 nm, 10 µL aliquots of PbCS (∼55 µM) were added, and spectral changes were monitored after each addition. To quantify the binding affinity of PH011669 to PbCS, we plotted the relative absorption changes at 510 nm as a function of the protein concentration in the cuvette[17].

[4] = target: T2, PbCS (Paracoccidioides brasiliensis, UniProt C1GBW5); test: Inhibition assay, CS reaction coupled with anthranilate synthase reaction; assay type: biochemical; details: 80 μM EPSP, 4 μM PbCS, 37 °C, Hill fit
Procedure: The influence of PH011669 on the activity of PbCS was tested by forward coupling the CS reaction with the anthranilate synthase reaction. The final reaction solution contained 80 μM EPSP, 4 μM PbCS, 7 µM YcnD, 20 μM anthranilate synthase, 4 mM MgSO4, 10 mM L-glutamine (L-Gln), 30 mM (NH4)2SO4, 1 mM dithiothreitol (DTT) and different concentrations of the inhibitor (0.1–250 µM). The assay was prepared in 10 mM potassium phosphate at pH 7.6 and pipetted into a 96-well plate. The reaction was started by the addition of 500 µM NADPH. PbCS activity could be studied spectrofluorometrically at 37 °C by following the increase in the fluorescence intensity at 390 nm (λex = 340 nm) for 5 min, which correlates with the amount of anthranilate formed in the course of the reaction. The slopes of the initial velocities were determined and plotted as a function of the log of the corresponding PH011669 concentration (triplicates were determined).
To test the inhibitory effect of PH011669 on the activity of CS, we used a coupled assay involving EPSP, CS, YcnD and anthranilate synthase. Our inhibition assay has been used to determine the ability of a drug to reduce the activity of the enzyme. The resulting IC50 value gives the concentration of a drug required for 50% inhibition of the enzymatic activity. […]

[5] = target: chorismate synthase (CS) (Staphylococcus aureus, UniProt Q2FYG9); test: Spectrophotometric titration, CS from Staphylococcus aureus; assay type: binding
[6] = target: chorismate synthase (CS) (Candida albicans, UniProt A0A1D8PTK1); test: Spectrophotometric titration, CS from Candida albicans; assay type: binding; details: CS from Candida albicans (fungus)
[7] = target: chorismate synthase (CS) (Botrytis cinerea, UniProt A0A384JF70); test: Spectrophotometric titration, CS from Botrytis fuckeliana; assay type: binding; details: CS from Botrytis fuckeliana (fungus)
[8] = target: chorismate synthase (CS) (Tetrahymena thermophila, UniProt Q23FV7); test: Spectrophotometric titration, CS from Tetrahymena thermophila; assay type: binding
[9] = target: chorismate synthase (CS); test: Spectrophotometric titration, CS from Solanum lycopersicum; assay type: binding; details: CS from Solanum lycopersicum (plant)
[10] = target: T3, chorismate synthase (CS) (Thermotoga maritima, UniProt Q9WYI2); test: Spectrophotometric titration, CS from Thermotoga marítima; assay type: binding
T3 construct: made in house; host or cells: E. coli

[11] = target: T4, chorismate synthase (CS) (Neurospora crassa, UniProt Q12640); test: Spectrophotometric titration, CS from Neurospora crassa; assay type: binding; details: CS from Neurospora crassa (fungus)
T4 construct: made in house; host or cells: E. coli
Procedure: as §1

[12] = target: T5, chorismate synthase (CS) (Escherichia coli, UniProt P12008); test: Spectrophotometric titration, CS from Escherichia coli; assay type: binding
T5 construct: made in house; host or cells: E. coli

[13] = target: T6, chorismate synthase (CS) (Saccharomyces cerevisiae, UniProt P28777); test: Spectrophotometric titration, CS from Saccharomyces cerevisiae; assay type: binding; details: CS from Saccharomyces cerevisiae (yeast)
T6 construct: made in house; host or cells: E. coli

[14] = target: T7, chorismate synthase (CS) (Capnoides sempervirens, UniProt P27793); test: Spectrophotometric titration, CS from Corydalis sempervirens; assay type: binding; details: CS from Corydalis sempervirens (plant)
T7 construct: made in house; host or cells: E. coli

[15] = target: T8, chorismate synthase (CS) (Trichormus variabilis, UniProt Q3MFM3); test: Spectrophotometric titration, CS from Anabaena variabilis; assay type: binding; details: CS from Anabaena variabilis (cyanobacterium)
T8 construct: made in house; host or cells: E. coli

[16] = target: T2, PbCS; test: Isothermal titration calorimetry (ITC); details: single site binding model, 25 °C, pH 8, triplicates, read-out: dissociation constant by ITC
Procedure: Isothermal titration calorimetry (ITC) was performed on a MicroCal PEAQ-ITC. All ITC experiments were conducted in storage buffer (50 mM NaH2PO4, 150 mM NaCl, pH 8) at 25 °C and a stirring rate of 750 rpm. Titration experiments consisted of 13 injections (first injection: 0.4 µL; duration time: 0.8 s; spacing time: 300 s; 2nd–13th injection: 3 µL; duration time: 6 s; spacing time: 150 s) and were performed in triplicates. The azo-dye PH011669 (500 µM) was loaded into the injection syringe and titrated into the sample cell containing PbCS (25 µM); the reference cell was filled with degassed ddH2O. Dissociation constants were obtained with the MicroCal PEAQ-ITC Analysis Software (Malvern) using the “one set of sites fitting” model.

[17] = target: chorismate synthase (CS) (Toxoplasma gondii, UniProt O02607); test: Spectrophotometric titration, CS from Toxoplasmodium gondii; assay type: binding; details: CS from Toxoplasmodium gondii (protozoon)
[18] = target: T2, PbCS; parameters: method as in PMID 30348661
[19] = target: T2, PbCS; parameters: method as in PMID 30348661; details: PbCS ref 13, cited from earlier work
[20] = target: CS from Neurospora crassa; parameters: method as in earlier work; details: competitive inhibitor of CS from Neurospora crassa ref 9; cited from earlier work
[21] = system: CS from Streptococcus pneumoniae (SpCS); parameters: method as in PMID 12565943; details: SpCS ref 12; cited from earlier work
[22] = system: CS; parameters: method as in PMID 7559411; details: very slow substrate of CS ref 10; cited from earlier work
[23] = target: CS from N. crassa; details: CS from N. crassa ref 30; cited from earlier work

T2 sequence (C1GBW5 entry or part of it): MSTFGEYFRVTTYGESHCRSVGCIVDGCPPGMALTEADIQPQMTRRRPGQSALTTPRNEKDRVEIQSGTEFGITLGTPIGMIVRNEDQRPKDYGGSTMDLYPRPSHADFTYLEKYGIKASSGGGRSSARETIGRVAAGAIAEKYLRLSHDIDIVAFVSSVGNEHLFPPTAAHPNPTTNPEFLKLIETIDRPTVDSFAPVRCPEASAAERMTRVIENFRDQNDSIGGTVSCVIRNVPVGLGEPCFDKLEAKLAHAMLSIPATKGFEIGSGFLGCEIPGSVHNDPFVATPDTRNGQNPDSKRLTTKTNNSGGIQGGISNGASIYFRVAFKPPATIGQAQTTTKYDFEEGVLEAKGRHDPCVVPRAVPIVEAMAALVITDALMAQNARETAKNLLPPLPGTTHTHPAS
Sequence of chorismate synthase from Paracoccidioides brasiliensis (PbCS) (C1GBW5 entry or part of it): as above
Sequence of chorismate synthase (CS) (Toxoplasma gondii, UniProt O02607) (O02607 whole entry): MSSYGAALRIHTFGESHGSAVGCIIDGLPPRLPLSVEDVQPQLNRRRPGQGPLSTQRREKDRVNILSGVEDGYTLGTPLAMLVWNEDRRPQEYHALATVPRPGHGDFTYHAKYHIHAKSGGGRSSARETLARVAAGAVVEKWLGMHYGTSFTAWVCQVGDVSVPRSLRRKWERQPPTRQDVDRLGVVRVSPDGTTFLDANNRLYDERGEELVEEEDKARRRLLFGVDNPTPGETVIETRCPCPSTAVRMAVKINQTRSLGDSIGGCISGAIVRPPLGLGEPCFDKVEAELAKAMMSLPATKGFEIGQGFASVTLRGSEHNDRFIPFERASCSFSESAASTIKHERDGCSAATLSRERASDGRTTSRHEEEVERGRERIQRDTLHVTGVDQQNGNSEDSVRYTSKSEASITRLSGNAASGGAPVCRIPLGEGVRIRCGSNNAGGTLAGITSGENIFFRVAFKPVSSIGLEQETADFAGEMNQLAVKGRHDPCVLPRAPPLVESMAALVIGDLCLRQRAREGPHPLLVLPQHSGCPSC
T7 sequence (P27793 58-447): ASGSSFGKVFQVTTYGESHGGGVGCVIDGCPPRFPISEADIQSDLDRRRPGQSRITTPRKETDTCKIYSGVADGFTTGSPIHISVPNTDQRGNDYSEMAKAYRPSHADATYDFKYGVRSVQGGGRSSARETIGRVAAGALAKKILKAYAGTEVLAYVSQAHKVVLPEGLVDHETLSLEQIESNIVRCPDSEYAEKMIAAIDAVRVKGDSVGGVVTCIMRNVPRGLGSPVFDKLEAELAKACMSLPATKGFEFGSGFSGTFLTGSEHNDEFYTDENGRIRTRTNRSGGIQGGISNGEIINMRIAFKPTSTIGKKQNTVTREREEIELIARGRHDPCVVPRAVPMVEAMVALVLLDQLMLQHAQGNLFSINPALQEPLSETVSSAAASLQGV
T6 sequence (P28777 whole entry): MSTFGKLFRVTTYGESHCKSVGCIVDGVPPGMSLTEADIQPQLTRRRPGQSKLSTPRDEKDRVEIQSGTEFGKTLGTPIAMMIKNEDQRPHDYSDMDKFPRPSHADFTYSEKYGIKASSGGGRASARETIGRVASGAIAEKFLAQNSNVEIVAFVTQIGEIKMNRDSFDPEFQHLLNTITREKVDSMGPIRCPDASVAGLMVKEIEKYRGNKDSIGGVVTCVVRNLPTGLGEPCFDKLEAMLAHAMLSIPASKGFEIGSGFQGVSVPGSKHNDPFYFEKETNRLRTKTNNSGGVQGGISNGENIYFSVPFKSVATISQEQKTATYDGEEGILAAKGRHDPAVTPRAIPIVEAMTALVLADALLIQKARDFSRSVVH
T3 sequence (Q9WYI2 whole entry): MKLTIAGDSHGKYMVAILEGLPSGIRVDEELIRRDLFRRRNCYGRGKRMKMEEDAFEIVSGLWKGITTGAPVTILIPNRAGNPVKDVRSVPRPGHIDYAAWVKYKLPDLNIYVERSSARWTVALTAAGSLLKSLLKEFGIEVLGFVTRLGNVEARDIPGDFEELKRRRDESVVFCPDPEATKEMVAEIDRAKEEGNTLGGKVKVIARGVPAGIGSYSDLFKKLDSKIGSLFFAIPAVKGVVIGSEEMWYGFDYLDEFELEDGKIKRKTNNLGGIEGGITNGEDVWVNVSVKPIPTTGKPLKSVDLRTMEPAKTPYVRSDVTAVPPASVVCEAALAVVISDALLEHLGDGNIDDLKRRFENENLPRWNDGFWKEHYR
T1 sequence (O66493 whole entry): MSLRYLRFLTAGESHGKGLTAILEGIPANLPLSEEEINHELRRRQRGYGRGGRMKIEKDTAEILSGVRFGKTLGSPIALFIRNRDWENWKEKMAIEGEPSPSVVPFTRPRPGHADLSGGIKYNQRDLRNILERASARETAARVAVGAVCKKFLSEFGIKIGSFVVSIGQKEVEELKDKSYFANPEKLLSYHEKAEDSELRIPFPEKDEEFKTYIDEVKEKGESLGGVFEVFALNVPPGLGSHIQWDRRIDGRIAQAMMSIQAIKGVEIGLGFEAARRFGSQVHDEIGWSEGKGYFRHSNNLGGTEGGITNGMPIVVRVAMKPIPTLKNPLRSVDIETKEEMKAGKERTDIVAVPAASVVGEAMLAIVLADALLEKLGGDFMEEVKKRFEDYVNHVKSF
Sequence of chorismate synthase (CS) (Methanothermobacter thermautotrophicus, UniProt O26843) (O26843 whole entry): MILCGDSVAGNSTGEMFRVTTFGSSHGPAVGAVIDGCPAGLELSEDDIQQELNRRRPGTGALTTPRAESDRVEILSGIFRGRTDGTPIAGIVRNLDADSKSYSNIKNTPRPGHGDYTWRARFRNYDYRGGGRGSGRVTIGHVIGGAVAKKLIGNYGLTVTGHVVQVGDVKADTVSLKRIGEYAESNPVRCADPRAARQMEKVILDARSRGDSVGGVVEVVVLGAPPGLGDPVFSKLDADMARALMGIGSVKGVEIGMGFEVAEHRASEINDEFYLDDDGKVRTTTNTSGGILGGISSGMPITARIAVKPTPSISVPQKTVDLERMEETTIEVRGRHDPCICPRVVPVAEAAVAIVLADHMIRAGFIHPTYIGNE
Sequence of chorismate synthase (CS) (Botrytis cinerea, UniProt A0A384JF70) (A0A384JF70 entry or part of it): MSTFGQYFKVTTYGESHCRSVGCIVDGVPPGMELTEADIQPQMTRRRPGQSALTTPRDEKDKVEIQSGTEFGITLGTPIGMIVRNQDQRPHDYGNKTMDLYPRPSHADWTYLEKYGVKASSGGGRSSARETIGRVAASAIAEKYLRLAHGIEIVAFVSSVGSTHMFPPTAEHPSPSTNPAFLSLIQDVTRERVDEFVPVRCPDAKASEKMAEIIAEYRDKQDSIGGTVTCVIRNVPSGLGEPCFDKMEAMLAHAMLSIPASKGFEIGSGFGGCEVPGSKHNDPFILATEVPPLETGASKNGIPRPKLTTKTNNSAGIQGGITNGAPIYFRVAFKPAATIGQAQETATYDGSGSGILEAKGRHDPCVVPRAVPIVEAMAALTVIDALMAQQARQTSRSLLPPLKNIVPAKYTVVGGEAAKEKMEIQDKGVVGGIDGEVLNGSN
T8 sequence (Q3MFM3 whole entry): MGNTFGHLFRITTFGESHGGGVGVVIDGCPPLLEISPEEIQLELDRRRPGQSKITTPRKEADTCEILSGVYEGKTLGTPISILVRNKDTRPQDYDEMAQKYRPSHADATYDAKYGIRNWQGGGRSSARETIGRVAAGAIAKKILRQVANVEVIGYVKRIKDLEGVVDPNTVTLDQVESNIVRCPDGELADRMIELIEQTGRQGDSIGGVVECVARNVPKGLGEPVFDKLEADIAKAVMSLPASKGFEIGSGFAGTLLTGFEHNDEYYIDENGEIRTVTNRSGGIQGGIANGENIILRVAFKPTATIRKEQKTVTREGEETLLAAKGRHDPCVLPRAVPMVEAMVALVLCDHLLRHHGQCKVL
Sequence of chorismate synthase (CS) (Candida albicans, UniProt A0A1D8PTK1) (A0A1D8PTK1 entry or part of it): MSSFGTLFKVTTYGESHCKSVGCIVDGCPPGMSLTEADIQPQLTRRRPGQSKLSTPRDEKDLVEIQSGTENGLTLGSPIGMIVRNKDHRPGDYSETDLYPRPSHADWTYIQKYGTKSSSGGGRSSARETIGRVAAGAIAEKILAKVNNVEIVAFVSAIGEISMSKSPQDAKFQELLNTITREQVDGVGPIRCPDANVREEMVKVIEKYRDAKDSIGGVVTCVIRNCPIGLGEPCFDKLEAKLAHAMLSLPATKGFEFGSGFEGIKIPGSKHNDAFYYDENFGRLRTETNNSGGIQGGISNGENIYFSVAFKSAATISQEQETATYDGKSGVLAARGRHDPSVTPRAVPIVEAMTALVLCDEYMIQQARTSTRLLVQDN
Sequence of chorismate synthase (CS) (Staphylococcus aureus, UniProt Q2FYG9) (Q2FYG9 whole entry): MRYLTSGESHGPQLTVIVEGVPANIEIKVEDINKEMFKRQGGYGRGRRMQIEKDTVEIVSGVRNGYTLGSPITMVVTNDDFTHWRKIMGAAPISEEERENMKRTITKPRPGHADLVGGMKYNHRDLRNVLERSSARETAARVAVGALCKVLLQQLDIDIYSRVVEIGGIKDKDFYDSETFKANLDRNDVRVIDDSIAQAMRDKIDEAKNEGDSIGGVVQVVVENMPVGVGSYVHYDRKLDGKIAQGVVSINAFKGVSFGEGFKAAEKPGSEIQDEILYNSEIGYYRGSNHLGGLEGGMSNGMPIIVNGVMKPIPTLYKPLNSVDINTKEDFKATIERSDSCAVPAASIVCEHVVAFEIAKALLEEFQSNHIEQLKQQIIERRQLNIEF

Q: For Nc1cc(S(=O)(=O)O)cc2cc(S(=O)(=O)O)c(/N=N/c3cc([N+](=O)[O-])cc(Cl)c3O)c(O)c12 [PH011669, 5-amino-3-[(E)-(3-chloro-2-hydroxy-5-nitrophenyl)diazenyl]-4-hydroxy-2,7-naphthalenedisulfonic acid], which Kd [1] is on record?
A: The Kd was 3.2 ± 0.1 µM.

Q: What about the Kd [2] of the same compound?
A: The Kd was 2700 nM.

Q: What about the “higher affinity than the initial hit” value ([3]; affinity to PbCS relative to initial hit (CaCS02)) of the same compound?
A: Its value is “ca. 20 fold”.

Q: And the Kd ([3]; read-out: Kd (dissociation constant), spectrophotometric titration, PbCS)?
A: Its Kd is 1100 nM.

Q: What about the IC50 [4] of the same compound?
A: The IC50 was 10 ± 1 µM.

Q: What about the Kd [5] of the same compound?
A: The Kd was 3.7 ± 0.1 µM.

Q: What about the Kd [6] of the same compound?
A: The Kd was 4.6 ± 0.7 µM.

Q: And the Kd [7]?
A: Its Kd is 4 ± 0.6 µM.

Q: And the Kd [8]?
A: The Kd was 4.4 ± 0.1 µM.

Q: And the Kd [9]?
A: The Kd was 1800 ± 100 nM.

Q: And the Kd [10]?
A: Its Kd is 1500 nM.

Q: What about the Kd [11] of the same compound?
A: Its Kd is 3.5 ± 0.1 µM.

Q: And the Kd [12]?
A: The Kd was 3.7 ± 1 µM.

Q: And the Kd [13]?
A: The Kd was 2400 ± 100 nM.

Q: And the Kd [14]?
A: Its Kd is 1000 ± 100 nM.

Q: And the Kd [15]?
A: The Kd was 1800 ± 100 nM.

Q: What about the Kd [16] of the same compound?
A: Its Kd is 3.8 ± 1.8 µM.

Q: And the Kd [17]?
A: The Kd was 1700 nM.

Q: What does the source list for O=[N+]([O-])c1ccc(/N=N/c2c(S(=O)(=O)O)cc3cc(S(=O)(=O)O)ccc3c2O)c([N+](=O)[O-])c1 [CaCS02, 2-(2,4-dinitrophenylazo)-1-hydroxynaphthalene-3,6-disulfonic acid (nitrazine yellow)]?
A: Kd ([18]; PbCS ref 13; read-out: dissociation constant; cited from earlier work): 20 µM; IC50 ([19]; read-out: IC50): 29 µM

Q: For C=C(OC1C(O)C(OP(=O)(O)O)C=C(C(=O)O)[C@H]1F)C(=O)O (stereo partly drawn) [6(R)-6-fluoro-EPSP, (6R)-6-fluoro-5-enolpyruvylshikimate 3-phosphate], which Ki [20] is on record?
A: Its Ki is 3000 ± 300 nM.

Q: For CCN(CC)c1ccc(/C=C2\Oc3c(ccc(O)c3O)C2=O)cc1 [BF1], which IC50 [21] is on record?
A: Its IC50 is 8 µM.

Q: With CCCCCOc1ccc(/C=C2\Oc3c(ccc(O)c3O)C2=O)c(O)c1 [BF2] as the compound, how does the IC50 [21] read?
A: The IC50 was 0.22 µM.

Q: Which Kd ([18]; read-out: dissociation constant; PbCS ref 13; cited from earlier work) does the source give for O=C(O)[C@H]1Nc2c(cccc2[N+](=O)[O-])[C@@H]2[C@H](Cl)[C@@H](Sc3ccccc3[N+](=O)[O-])C[C@@H]21 [CP1, (1S,2S,3aS,4S,9bR)-1-chloro-6-nitro-2-(2-nitrophenyl)sulfanyl-2,3,3a,4,5,9b-hexahydro-1H-cyclopenta[c]quinoline-4-carboxylic acid] here?
A: The Kd was 64 ± 1 µM.

Q: And the IC50 [19]?
A: Its IC50 is 47 µM.

Q: With C=C(OC1C(O)C(OP(=O)(O)O)C=C(C(=O)O)[C@@H]1F)C(=O)O (stereo partly drawn) [6(S)-6-fluoro-EPSP, (6S)-6-fluoro-5-enolpyruvylshikimate-3-phosphate] as the compound, how does the “slower turnover than EPSP” value [22] read?
A: The value was 200 fold.

Q: Which Kd [23] does the source give for C=C(OC1CC(C(=O)O)=CC(OP(=O)(O)O)C1O)C(=O)O (stereo not drawn) [EPSP, 5-enolpyruvylshikimate-3-phosphate] here?
A: Its Kd is 17 µM.
